Experiment: Solubility experiments and 1H-NMR spectra: complexing with cyclodextrins
Type: physicochemical
Details: hydrochloride of BIII 890; γ-cyclodextrin, HPγCD, HPβCD and SBEβCD

For C[C@@H](CN1CC[C@@]2(C)c3cccc(O)c3C[C@@H]1C2(C)C)OCc1ccccc1 [BIII 890, (−)-(1R,2″S)-2-(2″-benzyloxy)propyl-4′-hydroxy-5,9,9-trimethyl-6,7-benzomorphan], the “complexing of the active substance by cyclodextrins” value was “complex”.

From patent US20040019013A1, “Formulation for the parenteral application of a sodium channel blocker” (Boehringer Ingelheim Pharma GmbH & Co. KG, Ingelheim, …, priority 2002, published 2004)
